The text below walks through data of patent US20250333405A1, “ANTAGONISTS OF GPR39 PROTEIN” (VASOCARDEA, INC., priority 2024, published 2025).

Each structure is given as a SMILES string.

For the assay, the target named is T1, human GPR39 receptor (Homo sapiens, UniProt O43194).
T1 construct: PC3 Cells, Expressing the Endogenous Human GPR39 Receptor; endogenous in cells; host or cells: PC3 (human prostate adenocarcinoma) cells
T1 sequence (O43194 1-453): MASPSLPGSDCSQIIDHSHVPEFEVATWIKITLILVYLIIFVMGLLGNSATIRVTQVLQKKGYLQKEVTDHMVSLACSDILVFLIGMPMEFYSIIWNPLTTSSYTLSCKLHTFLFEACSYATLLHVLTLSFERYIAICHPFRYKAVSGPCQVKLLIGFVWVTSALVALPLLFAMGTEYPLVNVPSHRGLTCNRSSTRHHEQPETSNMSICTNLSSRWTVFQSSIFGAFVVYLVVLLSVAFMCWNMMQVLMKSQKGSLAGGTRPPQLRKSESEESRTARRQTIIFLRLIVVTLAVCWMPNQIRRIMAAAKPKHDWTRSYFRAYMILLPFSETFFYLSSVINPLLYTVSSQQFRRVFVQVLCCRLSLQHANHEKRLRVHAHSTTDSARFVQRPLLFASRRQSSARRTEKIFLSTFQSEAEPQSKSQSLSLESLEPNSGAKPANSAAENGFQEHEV
The assay can be described thus: Intracellular calcium response (FLIPR, Calcium-6) in PC3 cells, antagonism of agonist C3 (TC-G 1008) at EC90. The assay is classed as cell-based. The conditions noted are these: functional pKi (-Log10Ki) by modified Cheng-Prusoff from IC50; PC3 cells endogenously expressing human GPR39; 30 μM ZnCl2; agonist C3 (TC-G 1008) at EC90 1.5 μM; read-out: fpKi activity. The procedure: Measurement of Intracellular Calcium Response in PC3 Cells, Expressing the Endogenous Human GPR39 Receptor
Human prostate adenocarcinoma (PC3) cells endogenously expressing human GPR39 receptor were seeded into black walls clear-base 384-well plates at a density of 7,500 cells per well in DMEM (Low Glucose) supplemented with 10% heat-inactivated foetal bovine serum and 1% of Pen/Strep and grown overnight at 37° C., 5% CO2. After washing with assay buffer (20 mM HEPES, 137 mM NaCl, 5.4 mM KCl, 10 mM glucose, 0.8 mM MgSO4, 1.3 mM CaCl2), 0.3 mM Na2HPO4, 0.4 mM KH2PO4 4.2 mM NaHCO3, pH 7.4), cells were incubated with Calcium-6 probe (Molecular Devices) at 37° C. for 2 h and then equilibrated at RT for 30 minutes on metal block. The fluorescence was measured in real time by Fluorometric Imaging Plate Reader (FLIPR TETRA, Molecular Devices) (excitation wavelength at 470-495 nm, emission wavelength at 515-575 nm). Compounds of invention were serially diluted in neat DMSO at 1000 fold concentrations and plated into 384-well plates and then 200-fold diluted in assay buffer containing 150 μM ZnCl2 (30 μM final concentration) and 1.1% DMSO (0.32% final concentration). A dual addition FLIPR protocol was used which included a first addition of compounds 200-fold diluted in Assay Buffer containing 150 μM ZnCl2 and 1.1% DMSO and then after 10 minutes a second addition of a submaximal concentration of the hGPR39 receptor agonist, C3 (Tocris, TC-G 1008) at EC90 (concentration producing 90% of the maximal response) value of 1.5 μM. Fluorescence was monitored throughout the run assay. The peak of Ca2+ stimulation (baseline subtracted) was expressed as percentage of the maximal inhibition of the EC90 C3 response and was plotted versus the concentration of test compound. Curve fitting and IC50 estimations are carried out using a four-parameter logistic model using XLfit Software. […] An fpKi less than 5.2 is reported as “+/−”. An fpKi ranging from 5.2 to 5.9 is reported as “+”. An fpKi from 6.0 to 6.5 is reported as “++”. An fpKi from 6.6 to 7.2 is reported as “+++”. An fpKi equal to or greater than 7.3 is reported as “++++”.
In general terms: Calcium flux is commonly read through the fluorescence of an indicator in the cells.
Regarding `Cc1nnc(-c2ccc(C(=O)N3CCC(C(F)(F)F)CC3)c(-c3cccc(C4CC4)n3)c2)[nH]1` [Example 71, [2-(6-cyclopropylpyridin-2-yl)-4-(5-methyl-4H-1,2,4-triazol-3-yl)phenyl]-[4-(trifluoromethyl)piperidin-1-yl]methanone], the Ki was at most 50.1 nM. Take `Cc1nnc(-c2ccc(C(=O)N3CCC(C)(F)CC3)c(-c3ccn(C(C)C)n3)c2)[nH]1` [Example 43, (4-fluoro-4-methylpiperidin-1-yl)-[4-(5-methyl-4H-1,2,4-triazol-3-yl)-2-(1-propan-2-ylpyrazol-3-yl)phenyl]methanone]: the Ki was at most 50.1 nM. Under `CC(C)c1cc(-c2ccc(C(=O)N3CCC(F)(F)CC3)c(-c3ccn(C(C)C)n3)c2)[nH]n1` [Example 85, (4,4-difluoro-1-piperidyl)-[2-(1-isopropylpyrazol-3-yl)-4-(5-isopropyl-1H-pyrazol-3-yl)phenyl]methanone] stands 1260 to 6310 nM.

Turning to `Cc1nnc(-c2ccc(C(=O)N3CCN(C)CC3c3ccccc3)c(N3CCC(C(C)C)C3)c2)[nH]1` (single isomer, unassigned) [Example 125d, (4-methyl-2-phenylpiperazin-1-yl)-[4-(5-methyl-4H-1,2,4-triazol-3-yl)-2-(3-propan-2-ylpyrrolidin-1-yl)phenyl]methanone], the Ki was at most 50.1 nM.

`CN1CCN(C(=O)c2cc(F)c(NC(=O)C3CC3)nc2N2CCCC2)C(c2ccccc2)C1` (stereo not shown) [Example 115, N-[3-fluoro-5-(4-methyl-2-phenylpiperazine-1-carbonyl)-6-pyrrolidin-1-ylpyridin-2-yl]cyclopropanecarboxamide]: the Ki lay within 1260 to 6310 nM.

Take `CN1CCN(S(=O)(=O)c2ccc(NC(=O)C3CC3)cc2N2CCCC2)CC1` [Example 103, N-[4-(4-methylpiperazin-1-yl)sulfonyl-3-pyrrolidin-1-ylphenyl]cyclopropanecarboxamide]: the Ki fell in the range of 1260 to 6310 nM. Regarding `CN1CCN(C(=O)c2ccc(NC(=O)C3CC3)cc2N2CCCC2)C(c2ccccc2C(F)(F)F)C1` (racemic) [Example 106, N-[4-[4-methyl-2-[2-(trifluoromethyl)phenyl]piperazine-1-carbonyl]-3-pyrrolidin-1-ylphenyl]cyclopropanecarboxamide], the Ki was in the range of 316 to 1000 nM.

On to `Cc1c(NC(=O)C2CC2)ccc(C(=O)N2CCS(=O)(=O)CC2)c1N1CCCC1` [Example 94, N-[4-(1,1-dioxo-1,4-thiazinane-4-carbonyl)-2-methyl-3-pyrrolidin-1-ylphenyl]cyclopropanecarboxamide], for which the Ki was 316 to 1000 nM. The result for `CS(=O)(=O)NC1CCN(C(=O)c2ccc(NC(=O)C3CC3)cc2N2CCCC2)CC1` [Example 105, N-[4-[4-(methanesulfonamido)piperidine-1-carbonyl]-3-pyrrolidin-1-ylphenyl]cyclopropanecarboxamide] reads over 6310 nM. Under `Cc1nnc(-c2ccc(C(=O)N3CCC(F)(F)CC3)c(-c3cccc(C(F)(F)F)n3)c2)[nH]1` [Example 75, (4,4-difluoropiperidin-1-yl)-[4-(5-methyl-4H-1,2,4-triazol-3-yl)-2-[6-(trifluoromethyl)pyridin-2-yl]phenyl]methanone] stands at most 50.1 nM. On to `Cc1nnc(-c2ccc(C(=O)N3CCN(C)CC3c3ccccc3)c(N3CCC(C(C)C)C3)c2)[nH]1` (single isomer, unassigned) [Example 125c, (4-methyl-2-phenylpiperazin-1-yl)-[4-(5-methyl-4H-1,2,4-triazol-3-yl)-2-(3-propan-2-ylpyrrolidin-1-yl)phenyl]methanone], for which the Ki was in the range of 63.1 to 251 nM. Under `Cc1nnc(-c2ccc(C(=O)N3CCC(C)CC3)c(-c3cccc(C4CC4)n3)c2)[nH]1` [Example 63, [2-(6-cyclopropyl-2-pyridyl)-4-(5-methyl-4H-1,2,4-triazol-3-yl)phenyl]-(4-methyl-1-piperidyl)methanone] stands at most 50.1 nM; under `Cc1nnc(-c2ccc(C(=O)N3CCC(F)(F)CC3)c(-c3cccc(C4CC4)n3)c2)[nH]1` [Example 78, [2-(6-cyclopropyl-2-pyridyl)-4-(5-methyl-4H-1,2,4-triazol-3-yl)phenyl]-(4,4-difluoro-1-piperidyl)methanone], at most 50.1 nM.

For `CN1CCN(S(=O)(=O)c2ccc(NC(=O)C3CC3)cc2N2CCCC2)C(c2ccccc2)C1` (stereo not shown) [Example 102, N-[4-(4-methyl-2-phenylpiperazin-1-yl)sulfonyl-3-pyrrolidin-1-ylphenyl]cyclopropanecarboxamide], the Ki lay in the range of 1260 to 6310 nM.

In the case of `Cc1nnc(-c2ccc(C(=O)N3CCC(F)(F)CC3)c(-c3cccc(C(C)C)n3)c2)[nH]1` [Example 74], the Ki was at most 50.1 nM. Under `Cc1nnc(-c2ccc(C(=O)N3CCC(C(F)(F)F)CC3)c(-c3ccn(C4CCC4)n3)c2)[nH]1` [Example 47, [2-(1-cyclobutylpyrazol-3-yl)-4-(5-methyl-4H-1,2,4-triazol-3-yl)phenyl]-[4-(trifluoromethyl)piperidin-1-yl]methanone] stands at most 50.1 nM; under `Cc1cc(Nc2ccc(C(=O)N3CCN(C)CC3c3ccccc3)c(N3CCCC3)c2)on1` (racemic) [Example 18, [4-[(3-methyl-1,2-oxazol-5-yl)amino]-2-pyrrolidin-1-ylphenyl]-(4-methyl-2-phenylpiperazin-1-yl)methanone], 1260 to 6310 nM. Under `O=C(Nc1ccc(C(=O)N2CCC(c3ccccc3)C2)c(N2CCCC2)c1)C1CC1` (stereo not shown) [Example 2, N-[4-(3-phenylpyrrolidine-1-carbonyl)-3-pyrrolidin-1-ylphenyl]cyclopropanecarboxamide] stands 1260 to 6310 nM. `CCOC(=O)c1csc(-c2cc(-c3nnc(C)[nH]3)ccc2C(=O)N2CCC(F)(F)CC2)n1` [Example 82, ethyl 2-[2-(4,4-difluoropiperidine-1-carbonyl)-5-(5-methyl-4H-1,2,4-triazol-3-yl)phenyl]thiazole-4-carboxylate]: the Ki lay within 1260 to 6310 nM.

On to `O=C(Nc1ccc(C(=O)N2CCS(=O)(=O)CC2)c(C2CCCC2)c1)C1CC1` [Example 90, N-[3-cyclopentyl-4-(1,1-dioxo-1,4-thiazinane-4-carbonyl)phenyl]cyclopropanecarboxamide], for which the Ki was over 6310 nM. As to `COC1CCN(C(=O)c2ccc(-c3nnc(C)[nH]3)cc2-c2ccn(C(C)C)n2)CC1` [Example 58, (4-methoxypiperidin-1-yl)-[4-(5-methyl-4H-1,2,4-triazol-3-yl)-2-(1-propan-2-ylpyrazol-3-yl)phenyl]methanone], the Ki was at most 50.1 nM. The result for `Cc1nnc(-c2ccc(C(=O)N3CCC(C(F)(F)F)CC3)c(-c3nc(C(F)(F)F)cs3)c2)[nH]1` [Example 72, [4-(5-methyl-4H-1,2,4-triazol-3-yl)-2-[4-(trifluoromethyl)-1,3-thiazol-2-yl]phenyl]-[4-(trifluoromethyl)piperidin-1-yl]methanone] reads at most 50.1 nM; that for `CCOC(=O)c1csc(-c2cc(C#N)ccc2C(=O)N2CCC(F)(F)CC2)n1` [Example 81, ethyl 2-[5-cyano-2-(4,4-difluoropiperidine-1-carbonyl)phenyl]thiazole-4-carboxylate], 63.1 to 251 nM.

As to `O=C(c1ccc(-c2nnc[nH]2)cc1N1CCCC1)N1CCC(C(F)(F)F)CC1` [Example 112, [2-pyrrolidin-1-yl-4-(4H-1,2,4-triazol-3-yl)phenyl]-[4-(trifluoromethyl)piperidin-1-yl]methanone], the Ki fell in the range of 63.1 to 251 nM.

In the case of `CCCN1CCN(C(=O)c2ccc(NC(=O)C3CC3)cc2-c2ccn(C(C)C)n2)CC1` [Example 24, N-[3-(1-propan-2-ylpyrazol-3-yl)-4-(4-propylpiperazine-1-carbonyl)phenyl]cyclopropanecarboxamide], the Ki was at most 50.1 nM.
